Patent publication US20230257396A1, “MACROCYCLES AND THEIR USE” (BLOSSOMHILL THERAPEUTICS, INC., priority 2020, published 2023)

Assays:
Assay in all cases: KINOMEscan kinase binding assay (Eurofins/DiscoveRx), % Ctrl
kinases [1] = target: T1, kinases (Homo sapiens, UniProt P00519, E255K)
T1 construct: purchased Eurofins/DiscoveRx; host or cells: E. coli BL21-derived host (T7 phage display) for most kinases; HEK-293 for the rest
How it was run: (§1)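 Competition binding, 1 h RT: phage-tagged or HEK-293-expressed DNA-tagged kinase + immobilized ligand + compound. Eluate kinase by qPCR. % Ctrl = (test − positive ctrl)/(negative ctrl − positive ctrl) × 100; lower means stronger binding.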

kinases [2] = target: T2, kinases (Homo sapiens, UniProt P00519, T315I)
T2 construct: purchased Eurofins/DiscoveRx; host or cells: E. coli BL21-derived host (T7 phage display) for most kinases; HEK-293 for the rest
How it was run: as §1

kinases [3] = target: T3, kinases (Homo sapiens, UniProt P00519, Y253F)
T3 construct: purchased Eurofins/DiscoveRx; host or cells: E. coli BL21-derived host (T7 phage display) for most kinases; HEK-293 for the rest
How it was run: as §1

kinases [4] = target: T4, kinases (Homo sapiens, UniProt P07949, V804M)
T4 construct: purchased Eurofins/DiscoveRx; host or cells: E. coli BL21-derived host (T7 phage display) for most kinases; HEK-293 for the rest
T4 sequence (P07949 29-1114 V804M): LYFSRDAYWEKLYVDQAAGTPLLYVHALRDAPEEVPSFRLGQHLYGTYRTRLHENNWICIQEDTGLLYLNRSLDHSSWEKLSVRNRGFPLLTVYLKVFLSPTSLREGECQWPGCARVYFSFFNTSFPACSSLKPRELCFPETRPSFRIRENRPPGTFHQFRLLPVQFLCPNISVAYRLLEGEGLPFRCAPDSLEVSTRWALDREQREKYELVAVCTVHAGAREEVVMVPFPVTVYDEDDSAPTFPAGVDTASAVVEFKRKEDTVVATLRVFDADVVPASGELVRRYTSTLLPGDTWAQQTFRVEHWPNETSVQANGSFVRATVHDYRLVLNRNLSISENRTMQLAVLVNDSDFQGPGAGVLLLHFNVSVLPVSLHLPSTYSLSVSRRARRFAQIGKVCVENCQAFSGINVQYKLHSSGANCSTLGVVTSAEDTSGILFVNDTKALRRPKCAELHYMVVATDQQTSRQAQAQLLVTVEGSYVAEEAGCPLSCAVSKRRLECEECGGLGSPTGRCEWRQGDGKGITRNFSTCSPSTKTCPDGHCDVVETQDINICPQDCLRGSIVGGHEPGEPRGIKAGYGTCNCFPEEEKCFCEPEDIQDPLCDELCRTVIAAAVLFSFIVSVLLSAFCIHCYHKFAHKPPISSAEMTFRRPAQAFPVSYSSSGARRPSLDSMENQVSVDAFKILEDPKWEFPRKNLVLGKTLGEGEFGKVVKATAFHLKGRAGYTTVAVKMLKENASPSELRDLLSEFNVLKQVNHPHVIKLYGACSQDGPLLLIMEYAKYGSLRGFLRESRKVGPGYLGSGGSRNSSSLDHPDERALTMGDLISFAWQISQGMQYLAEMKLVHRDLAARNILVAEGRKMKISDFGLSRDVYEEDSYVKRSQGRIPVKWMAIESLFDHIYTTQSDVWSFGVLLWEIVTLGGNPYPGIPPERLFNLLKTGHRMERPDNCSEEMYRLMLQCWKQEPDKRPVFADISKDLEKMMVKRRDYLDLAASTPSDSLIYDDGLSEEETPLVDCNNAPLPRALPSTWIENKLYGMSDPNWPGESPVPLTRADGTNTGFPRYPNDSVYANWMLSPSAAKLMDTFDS
How it was run: as §1

kinases [5] = target: T5, kinases (Homo sapiens, UniProt P36888)
T5 construct: purchased Eurofins/DiscoveRx; host or cells: E. coli BL21-derived host (T7 phage display) for most kinases; HEK-293 for the rest
T5 sequence (P36888 27-993): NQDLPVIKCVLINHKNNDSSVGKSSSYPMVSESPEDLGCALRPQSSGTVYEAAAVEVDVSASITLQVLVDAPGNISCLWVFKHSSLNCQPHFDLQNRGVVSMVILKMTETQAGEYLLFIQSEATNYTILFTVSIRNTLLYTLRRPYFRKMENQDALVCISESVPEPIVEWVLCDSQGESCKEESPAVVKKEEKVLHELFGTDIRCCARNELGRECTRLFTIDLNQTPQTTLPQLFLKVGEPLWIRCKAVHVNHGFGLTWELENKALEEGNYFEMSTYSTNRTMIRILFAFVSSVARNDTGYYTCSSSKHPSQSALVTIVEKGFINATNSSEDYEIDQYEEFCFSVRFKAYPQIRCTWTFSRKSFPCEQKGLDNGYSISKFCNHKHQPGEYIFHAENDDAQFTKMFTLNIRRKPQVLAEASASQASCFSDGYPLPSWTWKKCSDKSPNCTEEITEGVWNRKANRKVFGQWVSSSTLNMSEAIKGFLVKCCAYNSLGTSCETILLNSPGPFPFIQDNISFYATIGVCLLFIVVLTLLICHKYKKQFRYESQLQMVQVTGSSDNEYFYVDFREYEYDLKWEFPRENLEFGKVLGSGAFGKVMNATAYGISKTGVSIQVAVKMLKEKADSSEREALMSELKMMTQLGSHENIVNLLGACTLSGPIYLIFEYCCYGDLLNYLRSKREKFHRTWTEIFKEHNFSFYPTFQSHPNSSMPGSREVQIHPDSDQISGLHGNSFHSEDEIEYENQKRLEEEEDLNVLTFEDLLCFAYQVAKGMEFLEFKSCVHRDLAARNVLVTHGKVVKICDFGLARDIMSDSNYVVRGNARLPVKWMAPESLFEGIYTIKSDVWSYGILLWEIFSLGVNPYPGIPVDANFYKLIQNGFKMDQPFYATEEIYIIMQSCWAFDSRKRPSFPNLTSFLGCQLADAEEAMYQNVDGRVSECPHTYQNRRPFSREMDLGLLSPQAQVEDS
How it was run: as §1

[6] = 1 μM; target ABL1(E255K)-phosphorylated
[7] = 1 μM; target ABL1(T315I)-nonphosphorylated
[8] = 1 μM; target ABL1(T315I)-phosphorylated
[9] = 1 μM; target ABL1(Y253F)-phosphorylated
[10] = 1 μM; target FLT3-autoinhibited
[11] = 1 μM; ABL1(E255K)-phosphorylated
[12] = 1 μM; ABL1(T315I)-nonphosphorylated
[13] = 1 μM; ABL1(T315I)-phosphorylated
[14] = 1 μM; ABL1(Y253F)-phosphorylated
[15] = target ABL1(E255K)-phosphorylated; 1 μM
[16] = target ABL1(T315I)-nonphosphorylated; 1 μM
[17] = target ABL1(T315I)-phosphorylated; 1 μM
[18] = target ABL1(Y253F)-phosphorylated; 1 μM
[19] = target FLT3-autoinhibited; 1 μM

SMILES	% Ctrl, ABL1(E255K)-phosphorylated (kinases [1]; [11])	% Ctrl, ABL1(T315I)-nonphosphorylated (kinases [2]; [12])	% Ctrl, ABL1(T315I)-phosphorylated (kinases [2]; [13])	% Ctrl, ABL1(Y253F)-phosphorylated (kinases [3]; [14])	% Ctrl, RET(V804M) (kinases [4]; 1 μM; RET(V804M))	% Ctrl, FLT3 (kinases [5]; 1 μM; FLT3)	% Ctrl, FLT3-autoinhibited (kinases [5]; 1 μM; FLT3-autoinhibited)	also measured
Cc1cc2c([nH]1)/C=C1\C(=O)Nc3cc(Cl)c(cc31)SCCOCCN(C)C2=O [Ex. 169, [16a(17)Z]-19-chloro-5-methyl-6,7,9,10-tetrahydro-1H-12,14-(ethanediylidene)dipyrrolo[3,4-g:2′,3′-j][1,4,13]oxathiazacyclopentadecine-4,16(5H,15H)-dione]								% Ctrl, ABL1(E255K)-phosphorylated (kinases [1]; [6]): 0.3 % Ctrl; % Ctrl, ABL1(T315I)-nonphosphorylated (kinases [2]; [7]): 0.3 % Ctrl; % Ctrl, ABL1(T315I)-phosphorylated (kinases [2]; [8]): 0.1 % Ctrl; % Ctrl, ABL1(Y253F)-phosphorylated (kinases [3]; [9]): 0.1 % Ctrl; % Ctrl, RET(V804M) (kinases [4]; 1 μM; target RET(V804M)): 0.9 % Ctrl; % Ctrl, FLT3 (kinases [5]; 1 μM; target FLT3): 1.8 % Ctrl; % Ctrl, FLT3-autoinhibited (kinases [5]; [10]): 12 % Ctrl
Cc1cc2c([nH]1)/C=C1\C(=O)Nc3ccc(cc31)-c1c(C)n[nH]c1CNCCN(C)C2=O [Ex. 127, [3a(4)Z]-6,9,16-trimethyl-9,10,11,12,13,14-hexahydro-1,17-(ethanediylidene)pyrazolo[4,3-m]dipyrrolo[3,2-f:3′,4′-i][1,4]diazacyclopentadecine-3,8(2H,5H)-dione]	0.1 % Ctrl	0 % Ctrl	0.65 % Ctrl	0 % Ctrl	1.6 % Ctrl	4.6 % Ctrl	9.9 % Ctrl	
Cc1cc2c([nH]1)/C=C1\C(=O)Nc3cc(Cl)c(cc31)OCCO[C@@H](C(=O)N(C)C)CN(C)C2=O [Ex. 137, [7R,16a(17)Z]-19-chloro-N,N,2,5-tetramethyl-4,16-dioxo-4,5,6,7,9,10,15,16-octahydro-1H-12,14-(ethanediylidene)dipyrrolo[3,2-i:3′,4′-l][1,4,7]dioxazacyclopentadecine-7-carboxamide]	64 % Ctrl	81 % Ctrl	69 % Ctrl	60 % Ctrl	57 % Ctrl	55 % Ctrl	77 % Ctrl	
Cc1cc2c([nH]1)/C=C1\C(=O)Nc3ccc(cc31)-c1ccnn1CCOCCN(C)C2=O [Ex. 41, [19a(20)Z]-2,5-dimethyl-6,7,9,10-tetrahydro-1H-15,17-(ethanediylidene)pyrazolo[1,5-d]dipyrrolo[3,4-h:2′,3′-k][1,4,14]oxadiazacyclohexadecine-4,19(5H,18H)-dione]	49 % Ctrl	16 % Ctrl	19 % Ctrl	49 % Ctrl	19 % Ctrl	5.5 % Ctrl	50 % Ctrl	
Cc1cc2c([nH]1)/C=C1\C(=O)Nc3cnc(cc31)-c1cnn(C)c1COCCNC2=O [Ex.123, [3a(4)Z]-6,14-dimethyl-10,11,13,14-tetrahydro-2H-17,1-(azenometheno)pyrazolo[4,3-m]dipyrrolo[3,2-f:3′,4′-i][1,4]oxazacyclopentadecine-3,8(5H,9H)-dione]	92 % Ctrl	100 % Ctrl	100 % Ctrl	100 % Ctrl	99 % Ctrl	87 % Ctrl	100 % Ctrl	
Cc1cc2c([nH]1)/C=C1\C(=O)Nc3ccc(cc31)O[C@@H](C)COCCN(C)C2=O [Ex. 92, [10S,16a(17)Z]-2,5,10-trimethyl-6,7,9,10-tetrahydro-1H-12,14-(ethanediylidene)dipyrrolo[3,2-i:3′,4′-l][1,4,7]dioxazacyclopentadecine-4,16(5H,15H)-dione]	22 % Ctrl	12 % Ctrl	66 % Ctrl	54 % Ctrl	43 % Ctrl	77 % Ctrl	96 % Ctrl	
Cc1cc2c([nH]1)/C=C1\C(=O)Nc3ccc(cc31)-c1cnn(C)c1CN(C)CCN(C)C2=O [Ex. 126, [3a(4)Z]-6,9,12,14-tetramethyl-9,10,11,12,13,14-hexahydro-1,17-(ethanediylidene)pyrazolo[4,3-m]dipyrrolo[3,2-f:3′,4′-i][1,4]diazacyclopentadecine-3,8(2H,5H)-dione]	0.55 % Ctrl	0 % Ctrl	0 % Ctrl	0.25 % Ctrl	0 % Ctrl	0.2 % Ctrl	0.25 % Ctrl	
Cc1cc2c([nH]1)/C=C1\C(=O)Nc3ccc(cc31)-c1c(noc1C)CNCCN(C)C2=O [Ex. 139, [3a(4)Z]-6,9,16-trimethyl-10,11,12,13-tetrahydro-2H-1,17-(ethanediylidene)[1,2]oxazolo[4,3-m]dipyrrolo[3,2-f:3′,4′-i][1,4]diazacyclopentadecine-3,8(5H,9H)-dione]								% Ctrl, ABL1(E255K)-phosphorylated (kinases [1]; [15]): 4.7 % Ctrl; % Ctrl, ABL1(T315I)-nonphosphorylated (kinases [2]; [16]): 0.1 % Ctrl; % Ctrl, ABL1(T315I)-phosphorylated (kinases [2]; [17]): 3 % Ctrl; % Ctrl, ABL1(Y253F)-phosphorylated (kinases [3]; [18]): 11 % Ctrl; % Ctrl, RET(V804M) (kinases [4]; target RET(V804M); 1 μM): 23 % Ctrl; % Ctrl, FLT3-autoinhibited (kinases [5]; [19]): 67 % Ctrl; % Ctrl, FLT3 (kinases [5]; target FLT3; 1 μM): 33 % Ctrl
Cc1cc2c([nH]1)/C=C1\C(=O)Nc3cnc(cc31)-c1cnn(C)c1CN(C)CCN(C)C2=O [Ex. 172, [3a(4)Z]-6,9,12,14-tetramethyl-9,10,11,12,13,14-hexahydro-17,1-(azenometheno)pyrazolo[4,3-m]dipyrrolo[3,2-f:3′,4′-i][1,4]diazacyclopentadecine-3,8(2H,5H)-dione]								% Ctrl, ABL1(E255K)-phosphorylated (kinases [1]; [6]): 0.4 % Ctrl; % Ctrl, ABL1(T315I)-nonphosphorylated (kinases [2]; [7]): 0 % Ctrl; % Ctrl, ABL1(T315I)-phosphorylated (kinases [2]; [8]): 1.7 % Ctrl; % Ctrl, ABL1(Y253F)-phosphorylated (kinases [3]; [9]): 0.2 % Ctrl; % Ctrl, RET(V804M) (kinases [4]; 1 μM; target RET(V804M)): 0.8 % Ctrl; % Ctrl, FLT3 (kinases [5]; 1 μM; target FLT3): 8.5 % Ctrl; % Ctrl, FLT3-autoinhibited (kinases [5]; [10]): 90 % Ctrl
Cc1cc2c([nH]1)/C=C1\C(=O)Nc3ccc(cc31)-c1c(C)nn(C)c1COCCN(C)C2=O [Ex. 146, [3a(4)Z]-6,9,14,16-tetramethyl-10,11,13,14-tetrahydro-2H-1,17-(ethanediylidene)pyrazolo[4,3-m]dipyrrolo[3,2-f:3′,4′-i][1,4]oxazacyclopentadecine-3,8(5H,9H)-dione]								% Ctrl, ABL1(E255K)-phosphorylated (kinases [1]; [15]): 57 % Ctrl; % Ctrl, ABL1(T315I)-nonphosphorylated (kinases [2]; [16]): 64 % Ctrl; % Ctrl, ABL1(T315I)-phosphorylated (kinases [2]; [17]): 34 % Ctrl; % Ctrl, ABL1(Y253F)-phosphorylated (kinases [3]; [18]): 89 % Ctrl; % Ctrl, RET(V804M) (kinases [4]; target RET(V804M); 1 μM): 12 % Ctrl; % Ctrl, FLT3-autoinhibited (kinases [5]; [19]): 100 % Ctrl; % Ctrl, FLT3 (kinases [5]; target FLT3; 1 μM): 24 % Ctrl
